Measured values from paper PMC11865978, “Cellular Activity of CQWW Nullomer-Derived Peptides” (ACS Omega, 2025).
pIC50: −log10 of the molar value.

What was measured:
Assay type in all cases: cell-based, human
[1] = tested on: GCGR-E31; conditions: 72 h
Method: (§1) Peptides were tested in an automated image-based high-content[42] cell painting[43],[44] assay that was originally developed to explore the mechanism of action of pharmacological and genetic perturbations within cells,[45] as well as a live cell imaging assay against six patient-derived glioblastoma cell lines (GCGR-E13, GCGR-E28, GCGR-E21, GCGR-E57, GCGR-E31, and GCGR-E34), covering classical, mesenchymal, and proneural subtypes, respectively (see Methods and Figure 1B–D), along with a healthy human fetal neuronal stem cell line (GCGR-NS9FB_B).
(§2) Cell survival was quantified by nuclei counts from the Hoechst dye-stained nuclei and IC50 values calculated along with 95% confidence intervals (Figure 1B; see Table S2 for full details). […]
(§3) High Content Phenotypic Screening assays
(§4) Cell lines (glioma stem cell lines and normal foetal neural stem cells) were seeded on laminin (10 µg/mL) coated 384-well plates (Greiner Bio-One, 781091) at 1,000 cells/well and incubated overnight at 37 °C and 5% CO2. Aqueous peptide solutions (10 mM) were further diluted to 1 mM in water containing 10 % glycerol and 0.01 % TX-100. Cells were dosed using a D300 digital dispenser (Tecan) by 10-point dose response (30 µM – 1 µM) in triplicate and with aqueous glycerol/TX-100 as control. The cells were placed in an IncuCyte live cell imager (Essen BioScience) and imaged every three hours for 72 hours. Prior to fixation, the plates were removed from the IncuCyte and stained with Mitrotracker DeepRed (Invitrogen, M22426, 300 nM, 30 minutes). Cells were then fixed using 4 % formaldehyde and permeabilized with 0.1 % TX-100 in PBS. The cells were stained with ‘Cell Painting’ […]
(§5) assay reagents1: Hoechst 33342 (10 mg/mL stock, Molecular Probes, 1:5000), SYTO14 […]
(§6) BSA/PBS. The plates were imaged using an ImageXpress high content microscope (Molecular Devices). Cells were imaged with a 20× objective, covering 6 fields-of-view in each well. The data was then analyzed using a custom CellProfiler software pipeline using the University of Edinburgh high performance computing cluster. Dose response plots were calculated using HC StratomineR (corelifeanalytics.com). Nuclei count data was analyzed separately to generate cell survival metrics (normalized to aqueous glycerol/TX -100 control). […]

[2] = tested on: GCGR-E57; conditions: 72 h
Method: as §1, §2, §3, §4, §5, §6

[3] = tested on: GCGR-E28; conditions: 72 h
Method: as §1, §2, §3, §4, §5, §6

[4] = tested on: GCGR-NS9FB_B; conditions: 72 h
Method: as §1, §2, §3, §4, §5, §6

[5] = tested on: GCGR-E13; assay: Multiparametric cell painting phenotypic profile (PCA); conditions: 1-16 μM, compared with control polyarginine peptide 15 and DMSO
Method: Figure 1 (A) 3D model of the CQWW peptide with residue labels shown in red. (B) Dose-dependent effect of peptide 2 (RRRRRCQWW) on cell survival across a range of cell lines, with fitted IC50 values shown below. (C) Representative live cell brightfield images of peptide 2 (RRRRRCQWW, 6 μM) against the glioblastoma stem cell line (GCGR-E28) versus normal neural stem cells (GCGR-NS9FB_B) after 3 h of incubation. (D) 3D principal component analysis (PCA 1, 2, and 3) from multiparametric cell painting image analysis of the GCGR-E13 cell line. […]
The phenotypic effect of the peptides was visualized by live cell imaging (Figure 1C, IncuCyte live cell imager) and also quantified via image analysis of cells labeled with the cell painting reagents (see Supporting Information) followed by image analysis using Cell Profiler (cellprofiler.org). […]
BSA/PBS. […] The data was then analyzed using a custom CellProfiler software pipeline using the University of Edinburgh high performance computing cluster. Dose response plots were calculated using HC StratomineR (corelifeanalytics.com). Nuclei count data was analyzed separately to generate cell survival metrics (normalized to aqueous glycerol/TX -100 control).
Dose response curves were fitted and IC50 values calculated using Prism GraphPad (graphpad.com). […]

## H-RRRRRCQWW-NH2 [Peptide 2]
[1]
  pIC50: 5.29
[2]
  pIC50: 5.37
[3]
  pIC50: 5.27
[4]
  pIC50: 5.10
[5]
  phenotypic profile in 3D principal component plot of cell painting features: strong, dose-dependent phenotype
